Patent US11306083B2, “Amide substituted imidazo[4,5-C]quinoline compounds with a branched chain linking group for use as an immune response modifier” (3M INNOVATIVE PROPERTIES COMPANY, priority 2017, dated 2022)

What was measured:
Format in all cases: cell-based
Details in all cases: 21-24 hrs, lowest concentration giving cytokine at least 2× negative control, tested 0.01-30 micromolar
[1] = system: TNF-alpha induction in human peripheral blood mononuclear cells (PBMC); assay: Cytokine induction in human cells (PBMC): TNF-alpha by multiplex bead assay
Experimental: (§1) Cytokine Induction in Human Cells
(§2) Whole blood was obtained from healthy human donors and collected by venipuncture into vacutainer tubes or syringes containing EDTA. Human peripheral blood mononuclear cells (PBMC) were purified from the whole blood by density gradient centrifugation. Histopaque 1077 (15 mL, Sigma, St. Louis, Mo.) was transferred to 6×50 mL sterile polypropylene conical tubes. The Histopaque was overlayed with 15-25 mL of blood diluted 1:2 in Hank's Balanced Salts Solution (HBSS) (Gibco, Life Technology, Grand Island N.Y.). The tubes were then centrifuged at 1370 rpm for 30 minutes at 20° C., with no brake (400×g, GH 3.8A Rotor).
(§3) The interface (buffy coat) containing the PBMC was collected and placed in a new sterile 50 mL conical polypropylene centrifuge tube. The PBMC were mixed with an equal volume of HBSS (about 20 mL from the interface and about 20 mL of HBSS), and then centrifuged at 1090 rpm, 10 min, 20° C., with brake (270×g, GH 3.8A Rotor). After completing centrifugation, the cells were resuspended in 2-3 mL ACK Red blood cell lysis buffer (ammonium chloride potassium solution, Gibco, Life Technology) and incubated for 2-5 minutes at 20° C. […]
(§4) The number of viable cells was determined by counting with a Miltenyi FACS instrument (Miltenyi Biotec Inc., San Diego, Calif.) or by using a hemacytometer. […] Ten microliters of the diluted cells were then applied to the hemacytometer, and the number of viable PBMC were determined by microscopy. […]
(§5) IFN-alpha cytokine levels (pg/mL) were measured by ELISA (human IFN-α, pan specific, Mabtech, Cincinnati, Ohio). IFN-gamma and TNF-alpha levels (pg/mL) were measured by multiplex bead assay (magnetic beads, R & D Systems Minneapolis, Minn.) according to the manufacturer's instructions.
(§6) Specifically, the minimum effective concentration of each compound (micromolar) was determined as the lowest concentration of the compound that induced a measured cytokine response at a level ([…]) that was at least 2× greater than that observed with the negative control wells.

[2] = system: IFN-alpha induction in human peripheral blood mononuclear cells (PBMC); assay: Cytokine induction in human cells (PBMC): IFN-alpha by ELISA
Experimental: as §1, §2, §3, §4, §5, §6

[3] = system: IFN-gamma induction in human peripheral blood mononuclear cells (PBMC); assay: Cytokine induction in human cells (PBMC): IFN-gamma by multiplex bead assay
Experimental: as §1, §2, §3, §4, §5, §6

## CCCCCCCCCC(=O)NCCC[C@@H](COCC)n1cnc2c(N)nc3ccccc3c21 [Example 3, N-[(4S)-4-(4-aminoimidazo[4,5-c]quinolin-1-yl)-5-ethoxy-pentyl]decanamide]
[1]
  MEC to Induce Cytokine TNF-alpha: ≤0.01 µM
[2]
  MEC to Induce Cytokine IFN-alpha: ≤0.01 µM
[3]
  MEC to Induce Cytokine IFN-gamma: 0.04 µM

## CCCCCCCCCCCCCC(=O)NCCC[C@@H](COCC)n1cnc2c(N)nc3ccccc3c21 [Example 2, N-[(4S)-4-(4-aminoimidazo[4,5-c]quinolin-1-yl)-5-ethoxy-pentyl]tetradecanamide]
[1]
  MEC to Induce Cytokine TNF-alpha: ≤0.01 µM
[2]
  MEC to Induce Cytokine IFN-alpha: ≤0.01 µM
[3]
  MEC to Induce Cytokine IFN-gamma: 0.04 µM

## CCCCCCCCCCCCCCCCCC(=O)NCCC[C@@H](COCC)n1cnc2c(N)nc3ccccc3c21 [Example 1, N-[(4S)-4-(4-aminoimidazo[4,5-c]quinolin-1-yl)-5-ethoxy-pentyl]octadecanamide]
[1]
  MEC to Induce Cytokine TNF-alpha: ≤0.01 µM
[2]
  MEC to Induce Cytokine IFN-alpha: ≤0.01 µM
[3]
  MEC to Induce Cytokine IFN-gamma: 1.1 µM
